Key:
Assay in all cases: Test B postemergence
Format in all cases: in vivo
Conditions in all cases: scale 0 to 100
[1] = system: green foxtail (Setaria viridis)
Excerpt: (§1) Seeds of plant species selected from blackgrass (Alopecurus myosuroides), downy bromegrass (Bromus tectorum), green foxtail (Setaria viridis), Italian ryegrass (Lolium multiflorum), wheat (Triticum aestivum), wild oat (Avena fatua), galium (Galium aparine), bermudagrass (Cynodon dactylon), Surinam grass (Brachiaria decumbens), cocklebur (Xanthium strumarium), corn (Zea mays), large crabgrass (Digitaria sanguinalis), woolly cupgrass (Eriochloa villosa), giant foxtail (Setaria faberii), goosegrass (Eleusine indica), johnsongrass (Sorghum halepense), kochia (Kochia scoparia), lambsquarters (Chenopodium album), morningglory (Ipomoea coccinea), yellow nutsedge (Cyperus esculentus), pigweed (Amaranthus retroflexus), ragweed (Ambrosia elatior), soybean (Glycine max), velvetleaf (Abutilon theophrasti), barley (Hordeum vulgare), canarygrass (Phalaris minor), chickweed (Stellaria media), deadnettle (Lamium amplexicaule) and windgrass (Apera spica-venti) were planted in pots containing Redi-Earth® planting medium (Scotts Company, Marysville, Ohio, USA) comprising spaghnum peat moss, vermiculite, wetting agent and starter nutrients and treated postemergence with test compounds formulated in a non-phytotoxic solvent mixture which included a surfactant. Plants ranged in height from 2 to 18 cm (1- to 4-leaf stage).
(§2) Treated plants and controls were maintained in a greenhouse for 13 to 15 days, after which time all species were compared to controls and visually evaluated. Plant response ratings, summarized in Table B, are based on a scale of 0 to 100 where 0 is no effect and 100 is complete control. A dash (-) response means no test result.

[2] = system: blackgrass (Alopecurus myosuroides)
Excerpt: as §1, §2

[3] = system: chickweed (Stellaria media)
Excerpt: as §1, §2

[4] = system: velvetleaf (Abutilon theophrasti)
Excerpt: as §1, §2

galium (Galium aparine) = system: galium (Galium aparine)
Excerpt: as §1, §2

[5] = system: morningglory (Ipomoea coccinea)
Excerpt: as §1, §2

[6] = system: large crabgrass (Digitaria sanguinalis)
Excerpt: as §1, §2

[7] = system: woolly cupgrass (Eriochloa villosa)
Excerpt: as §1, §2

[8] = system: Surinam grass (Brachiaria decumbens)
Excerpt: as §1, §2

[9] = system: wheat (Triticum aestivum)
Excerpt: as §1, §2

[10] = system: pigweed (Amaranthus retroflexus)
Excerpt: as §1, §2

[11] = system: lambsquarters (Chenopodium album)
Excerpt: as §1, §2

soybean (Glycine max) = system: soybean (Glycine max)
Excerpt: as §1, §2

[12] = system: Italian ryegrass (Lolium multiflorum)
Excerpt: as §1, §2

[13] = system: johnsongrass (Sorghum halepense)
Excerpt: as §1, §2

barley (Hordeum vulgare) = system: barley (Hordeum vulgare)
Excerpt: as §1, §2

wild oat (Avena fatua) = system: wild oat (Avena fatua)
Excerpt: as §1, §2

[14] = system: canarygrass (Phalaris minor)
Excerpt: as §1, §2

[15] = system: bermudagrass (Cynodon dactylon)
Excerpt: as §1, §2

[16] = system: goosegrass (Eleusine indica)
Excerpt: as §1, §2

[17] = system: windgrass (Apera spica-venti)
Excerpt: as §1, §2

kochia (Kochia scoparia) = system: kochia (Kochia scoparia)
Excerpt: as §1, §2

COCCn1c(-c2cc(F)cc(F)c2)c(Cl)nc(C(=O)C2=C(O)CCCC2=O)c1=O [Compound 6, 5-chloro-6-(3,5-difluorophenyl)-3-[(2-hydroxy-6-oxo-1-cyclohexen-1-yl)carbonyl]-1-(2-methoxyethyl)-2(1H)-pyrazinone]
Plant response rating, Foxtail, Green ([1]; 31 g ai/ha): 50 | Plant response rating, Foxtail, Green ([1]; 62 g ai/ha): 70 | Plant response rating, Foxtail, Green ([1]; 125 g ai/ha): 85 | Plant response rating, Foxtail, Green ([1]; 250 g ai/ha): 98 | Plant response rating, Blackgrass ([2]; 31 g ai/ha): 50 | Plant response rating, Blackgrass ([2]; 62 g ai/ha): 55 | Plant response rating, Blackgrass ([2]; 125 g ai/ha): 60 | Plant response rating, Blackgrass ([2]; 250 g ai/ha): 60 | Plant response rating, Chickweed ([3]; 31 g ai/ha): 10 | Plant response rating, Chickweed ([3]; 62 g ai/ha): 25 | Plant response rating, Chickweed ([3]; 125 g ai/ha): 55 | Plant response rating, Chickweed ([3]; 250 g ai/ha): 75 | Plant response rating, Velvetleaf ([4]; 31 g ai/ha): 60 | Plant response rating, Velvetleaf ([4]; 62 g ai/ha): 65 | Plant response rating, Velvetleaf ([4]; 125 g ai/ha): 80 | Plant response rating, Velvetleaf ([4]; 250 g ai/ha): 80 | Plant response rating, Galium (galium (Galium aparine); 31 g ai/ha): 40 | Plant response rating, Galium (galium (Galium aparine); 62 g ai/ha): 50 | Plant response rating, Galium (galium (Galium aparine); 125 g ai/ha): 60 | Plant response rating, Galium (galium (Galium aparine); 250 g ai/ha): 65 | Plant response rating, Morningglory ([5]; 31 g ai/ha): 95 | Plant response rating, Morningglory ([5]; 62 g ai/ha): 100 | Plant response rating, Morningglory ([5]; 125 g ai/ha): 100 | Plant response rating, Morningglory ([5]; 250 g ai/ha): 100 | Plant response rating, Crabgrass, Large ([6]; 31 g ai/ha): 75 | Plant response rating, Crabgrass, Large ([6]; 62 g ai/ha): 85 | Plant response rating, Crabgrass, Large ([6]; 125 g ai/ha): 95 | Plant response rating, Crabgrass, Large ([6]; 250 g ai/ha): 98 | Plant response rating, Cupgrass, Woolly ([7]; 31 g ai/ha): 90 | Plant response rating, Cupgrass, Woolly ([7]; 62 g ai/ha): 100 | Plant response rating, Cupgrass, Woolly ([7]; 125 g ai/ha): 100 | Plant response rating, Cupgrass, Woolly ([7]; 250 g ai/ha): 100 | Plant response rating, Surinam Grass ([8]; 31 g ai/ha): 75 | Plant response rating, Surinam Grass ([8]; 62 g ai/ha): 75 | Plant response rating, Surinam Grass ([8]; 125 g ai/ha): 85 | Plant response rating, Surinam Grass ([8]; 250 g ai/ha): 98 | Plant response rating, Wheat ([9]; 31 g ai/ha): 45 | Plant response rating, Wheat ([9]; 62 g ai/ha): 45 | Plant response rating, Wheat ([9]; 125 g ai/ha): 50 | Plant response rating, Wheat ([9]; 250 g ai/ha): 60 | Plant response rating, Pigweed ([10]; 31 g ai/ha): 80 | Plant response rating, Pigweed ([10]; 62 g ai/ha): 95 | Plant response rating, Pigweed ([10]; 125 g ai/ha): 98 | Plant response rating, Pigweed ([10]; 250 g ai/ha): 98 | Plant response rating, Lambsquarters ([11]; 31 g ai/ha): 80 | Plant response rating, Lambsquarters ([11]; 62 g ai/ha): 98 | Plant response rating, Lambsquarters ([11]; 125 g ai/ha): 100 | Plant response rating, Lambsquarters ([11]; 250 g ai/ha): 100 | Plant response rating, Soybean (soybean (Glycine max); 31 g ai/ha): 45 | Plant response rating, Soybean (soybean (Glycine max); 62 g ai/ha): 65 | Plant response rating, Soybean (soybean (Glycine max); 125 g ai/ha): 70 | Plant response rating, Soybean (soybean (Glycine max); 250 g ai/ha): 95 | Plant response rating, Ryegrass, Italian ([12]; 31 g ai/ha): 0 | Plant response rating, Ryegrass, Italian ([12]; 62 g ai/ha): 5 | Plant response rating, Ryegrass, Italian ([12]; 125 g ai/ha): 15 | Plant response rating, Ryegrass, Italian ([12]; 250 g ai/ha): 45 | Plant response rating, Johnsongrass ([13]; 31 g ai/ha): 80 | Plant response rating, Johnsongrass ([13]; 62 g ai/ha): 80 | Plant response rating, Johnsongrass ([13]; 125 g ai/ha): 85 | Plant response rating, Johnsongrass ([13]; 250 g ai/ha): 100 | Plant response rating, Barley (barley (Hordeum vulgare); 31 g ai/ha): 25 | Plant response rating, Barley (barley (Hordeum vulgare); 62 g ai/ha): 35 | Plant response rating, Barley (barley (Hordeum vulgare); 125 g ai/ha): 50 | Plant response rating, Barley (barley (Hordeum vulgare); 250 g ai/ha): 70 | Plant response rating, Oat, Wild (wild oat (Avena fatua); 31 g ai/ha): 10 | Plant response rating, Oat, Wild (wild oat (Avena fatua); 62 g ai/ha): 40 | Plant response rating, Oat, Wild (wild oat (Avena fatua); 125 g ai/ha): 40 | Plant response rating, Oat, Wild (wild oat (Avena fatua); 250 g ai/ha): 90 | Plant response rating, Canarygrass ([14]; 31 g ai/ha): 55 | Plant response rating, Canarygrass ([14]; 62 g ai/ha): 55 | Plant response rating, Canarygrass ([14]; 125 g ai/ha): 70 | Plant response rating, Canarygrass ([14]; 250 g ai/ha): 90 | Plant response rating, Bermudagrass ([15]; 31 g ai/ha): 5 | Plant response rating, Bermudagrass ([15]; 62 g ai/ha): 45 | Plant response rating, Bermudagrass ([15]; 125 g ai/ha): 75 | Plant response rating, Bermudagrass ([15]; 250 g ai/ha): 95 | Plant response rating, Goosegrass ([16]; 31 g ai/ha): 75 | Plant response rating, Goosegrass ([16]; 62 g ai/ha): 80 | Plant response rating, Goosegrass ([16]; 125 g ai/ha): 95 | Plant response rating, Goosegrass ([16]; 250 g ai/ha): 98 | Plant response rating, Windgrass ([17]; 31 g ai/ha): 60 | Plant response rating, Windgrass ([17]; 62 g ai/ha): 75 | Plant response rating, Windgrass ([17]; 125 g ai/ha): 80 | Plant response rating, Windgrass ([17]; 250 g ai/ha): 80 | Plant response rating, Kochia (kochia (Kochia scoparia); 31 g ai/ha): 5 | Plant response rating, Kochia (kochia (Kochia scoparia); 62 g ai/ha): 40 | Plant response rating, Kochia (kochia (Kochia scoparia); 125 g ai/ha): 40 | Plant response rating, Kochia (kochia (Kochia scoparia); 250 g ai/ha): 45
